Patent publication US5214037A, “Thioalkylthio cephalosporin derivatives” (Shionogi & Co., Ltd., priority 1990, dated 1993)
In brackets after ≈: the same amount, converted by molar mass. Where a name gives a salt, the structure may show the parent alone. Values belong to the molecule of their own block, whether it stands above or below them.

Columns and labels:
[1] = tested on: Enterobacter cloacae SR233; test: Antibacterial activity in vitro, minimal inhibitory concentration (two-fold agar dilution); format: cell-based
Description: (§1) Antibacterial activity in vitro : A solution of the test compound in 0.01N-aqueous sodium hydrogen carbonate was applied to an agar plate by two-fold dilution method and the minimal inhibitory concentrations against Gram-negative and Gram-positive bacteria were measured according to the standard method of the Japan Society of Chemotherapy.

Morgania morganii SR9 = test: as above; format: cell-based
Description: as §1

[2] = Blood level at 15 minutes after oral administration to mice; format: in vivo, mouse; details: 40 mg/kg oral; for concentration at 0.25 h: mouse, blood
Description: The in vivo absorption rate of the compound I after oral administration was determined by administering a compound of the invention to mouse and measuring the blood level.
Blood level at 15 minutes after oral administration : A test compound (40 mg/kg) in a 5% suspension of arabic gum was administered to a mouse (weighing ca. 25 g) through an enteral tube. After 15 minutes, the blood in the heart cavity was taken and the concentration of the test compound was measured by the band culture method using Escherichia coli 7437.

[3] = tested on: Staphylococcus aureus Smith; test: Antibacterial activity in vitro, minimal inhibitory concentration (two-fold agar dilution); format: cell-based
Description: as §1

[4] = tested on: Staphylococcus aureus 209P JC-1; test: as above; format: cell-based; details: Staphylococcus aureus 209P JC-1, agar dilution
Description: as §1

Escherichia coli 7437 = test: as above; format: cell-based; details: Escherichia coli 7437, agar dilution
Description: as §1

Proteus vulgaris CN-329 = test: as above; format: cell-based; details: CN329; Proteus vulgaris CN-329, agar dilution
Description: as §1

Escherichia coli EC-14 = test: as above; format: cell-based; details: EC14; Escherichia coli EC-14, agar dilution
Description: as §1

[5] = tested on: Pseudomonas aeruginosa A25619; test: as above; format: cell-based
Description: as §1

Proteus mirabilis PR4 = test: as above; format: cell-based
Description: as §1

[6] = tested on: Serratia marcescens SR1005; test: as above; format: cell-based
Description: as §1

[7] = tested on: Serratia marcescens A13880; test: as above; format: cell-based
Description: as §1

[8] = tested on: Haemophilus influenzae SR3508; test: as above; format: cell-based
Description: as §1

[9] = tested on: Klebsiella pneumoniae SR1; test: as above; format: cell-based; details: unit cut off in print
Description: as §1

Escherichia coli SR377 = test: as above; format: cell-based
Description: as §1

MIC [1]: 0.8 µg/mL (≈ 1.51 µM)
MIC (Morgania morganii SR9): 0.1 µg/mL (≈ 0.189 µM)
concentration at 0.25 h [2]: 12100 ng/mL
SMILES: Nc1nc(/C(=N/O)C(=O)N[C@@H]2C(=O)N3C(C(=O)O)=C(SCSCc4c[nH]nn4)CS[C@H]23)cs1 [Example 6-1, 7β-[(Z)-2-(2-aminothiazol-4-yl) -2-hydroxyiminoacetamido]-3-(1,2,3-triazol-4-ylmethylthiomethylthio) -3-cephem-4-carboxylic acid]

MIC [3]: 0.1 µg/mL (≈ 0.213 µM)
concentration at 0.25 h [2]: 28000 ng/mL
SMILES: O=C(CSC(F)F)N[C@@H]1C(=O)N2C(C(=O)O)=C(SCSc3c[nH]nn3)CS[C@H]12 [Example 7-1, 7β-difluoromethylthioacetamido-3-(1,2,3-triazol-4-ylthiomethylthio)-3-cephem-4-carboxylic acid]

MIC [4]: 0.05 µg/mL (≈ 0.108 µM)
MIC [3]: 0.05 µg/mL (≈ 0.108 µM)
concentration at 0.25 h [2]: 15000 ng/mL
SMILES: O=C(Cc1ccccc1)N[C@@H]1C(=O)N2C(C(=O)O)=C(SCSc3c[nH]nn3)CS[C@H]12 [Example 7-2, 7β-phenylacetylamino-3-(1,2,3-triazol-4-yl) thiomethylthio-3-cephem-4-carboxylic acid]

concentration at 0.25 h [2]: 18500 ng/mL
SMILES: O=C(O)C1=C(SCSc2c[nH]nn2)CS[C@@H]2[C@H](NC(=O)[C@H](O)c3ccccc3)C(=O)N12 [Example 7-3, 7β-D-mandelamido-3-(1,2,3-triazol-4-ylthiomethylthio)-3-cephem-4-carboxylic acid]

MIC [1]: 0.8 µg/mL (≈ 1.55 µM)
MIC (Escherichia coli 7437): 0.02 µg/mL (≈ 0.0389 µM)
blood level on oral administration [2]: 29600 ng/mL
concentration at 0.25 h [2]: 29600 ng/mL
SMILES: Nc1nc(/C(=N/O)C(=O)N[C@@H]2C(=O)N3C(C(=O)O)=C(SCSc4c[nH]nn4)CS[C@H]23)cs1 [Example 7-5]

MIC (Morgania morganii SR9): 0.1 µg/mL
MIC (Proteus vulgaris CN-329): 0.02 µg/mL
concentration at 0.25 h [2]: 15000 ng/mL
SMILES: CO/N=C(\C(=O)N[C@@H]1C(=O)N2C(C(=O)O)=C(SCSc3c[nH]nn3)CS[C@H]12)c1csc(N)n1 [Example 7-6, 7β-(Z)-2-(2-aminothiazol-4-yl)-2-methoxyiminoacetyl]amino-3-(1,2,3-triazol-4-yl) thiomethylthio-3-cephem-4-carboxylic acid sodium salt]

MIC (Escherichia coli EC-14): 0.8 µg/mL (≈ 1.37 µM)
MIC [5]: 0.8 µg/mL (≈ 1.37 µM)
SMILES: Nc1nc(/C(=N/OC2CCCC2)C(=O)N[C@@H]2C(=O)N3C(C(=O)O)=C(SCSc4c[nH]nn4)CS[C@H]23)cs1 [Example 7-7, 7β-[(Z)-2-(2-aminothiazol-4-yl)-2-cyclopentyloxyiminoacetamido]-3-(1,2,3-triazol-4-ylthiomethylthio)-3-cephem-4-carboxylic acid]

MIC [1]: 0.8 µg/mL (≈ 1.44 µM)
MIC (Escherichia coli EC-14): 0.4 µg/mL (≈ 0.721 µM)
SMILES: C=CCO/N=C(\C(=O)N[C@@H]1C(=O)N2C(C(=O)O)=C(SCSc3c[nH]nn3)CS[C@H]12)c1csc(N)n1 [Example 7-8, 7β-[(Z)-2-(2-aminothiazol-4-yl)-2-(2-propenyloxyimino)acetamido]-3-(1,2,3-triazol-4-ylthiomethylthio) -3-cephem-4-carboxylic acid]

MIC (Escherichia coli EC-14): 0.8 µg/mL (≈ 1.65 µM)
MIC (Proteus vulgaris CN-329): 0.8 µg/mL (≈ 1.65 µM)
MIC [3]: 0.1 µg/mL (≈ 0.206 µM)
concentration at 0.25 h [2]: 17100 ng/mL
SMILES: Nc1nc(CC(=O)N[C@@H]2C(=O)N3C(C(=O)O)=C(SCSc4c[nH]nn4)CS[C@H]23)cs1 [Example 7-10, 7β-[2-(2-aminothiazol-4yl)acetamido]-3-(1,2,3-triazol-4-ylthiomethylthio)-3-cephem-4-carboxylic acid]

MIC (Escherichia coli EC-14): 0.4 µg/mL (≈ 0.801 µM)
SMILES: Nc1nc(C(=O)C(=O)N[C@@H]2C(=O)N3C(C(=O)O)=C(SCSc4c[nH]nn4)CS[C@H]23)cs1 [Example 7-11, 7β-[2-(2-aminothiazol-4-yl)glyoxylylamido]-3-(1,2,3-triazol-4-ylthiomethylthio) -3-cephem-4-carboxylic acid]

MIC (Proteus mirabilis PR4): 0.006 µg/mL
MIC (Proteus vulgaris CN-329): 0.006 µg/mL
SMILES: Nc1nc(/C(=N/OCC(=O)O)C(=O)N[C@@H]2C(=O)N3C(C(=O)O)=C(SCSc4c[nH]nn4)CS[C@H]23)cs1 [Example 7-13, 7μ-[(Z)-2-(2-aminothiazol-4-yl)-2-(sodiooxycarbonylmethoxyimino)acetamido]-3-(1,2,3-triazol-4-ylthiomethylthio) -3-cephem-4-carboxylic acid sodium salt]

MIC (Escherichia coli EC-14): 0.2 µg/mL
MIC (Proteus mirabilis PR4): 0.01 µg/mL
MIC (Proteus vulgaris CN-329): 0.006 µg/mL
SMILES: C[C@H](O/N=C(\C(=O)N[C@@H]1C(=O)N2C(C(=O)O)=C(SCSc3c[nH]nn3)CS[C@H]12)c1csc(N)n1)C(=O)O [Example 7-14, 7μ-(Z)-2-(2-aminothiazol-4-yl)-2-[(S)-1-sodiooxycarbonylethoxyimino]acetamido}-3-(1,2,3-triazol-4-ylthiomethylthio)-3-cephem-4-carboxylic acid sodium salt]

MIC (Proteus mirabilis PR4): < 0.003 µg/mL
MIC [6]: 0.8 µg/mL (≈ 1.37 µM)
SMILES: C=C(O/N=C(\C(=O)N[C@@H]1C(=O)N2C(C(=O)O)=C(SCSc3c[nH]nn3)CS[C@H]12)c1csc(N)n1)C(=O)O [Example 7-15, 7μ-[(Z)-2-(2-aminothiazol-4-yl)-2-(1-carboxyvinyloxyimino)acetamido]-3-(1,2,3-triazol-4-ylthiomethylthio)-3-cephem-4-carboxylic acid]

MIC (Proteus mirabilis PR4): 0.01 µg/mL (≈ 0.0166 µM)
MIC [5]: 1.6 µg/mL (≈ 2.66 µM)
MIC [7]: 0.8 µg/mL (≈ 1.33 µM)
SMILES: CC(C)(O/N=C(\C(=O)N[C@@H]1C(=O)N2C(C(=O)O)=C(SCSc3c[nH]nn3)CS[C@H]12)c1csc(N)n1)C(=O)O [Example 7-16, 7μ-[(Z)-2-(2-aminothiazol-4-yl) -2-(1-carboxy-1-methylethoxyimino)acetamido]-3-(1,2,3-triazol-4-ylthiomethylthio)-3-cephem-4-carboxylic acid]

MIC [1]: 0.8 µg/mL (≈ 1.51 µM)
MIC (Escherichia coli 7437): 0.02 µg/mL (≈ 0.0378 µM)
MIC [8]: 0.1 µg/mL (≈ 0.189 µM)
SMILES: Cn1cc(SCSC2=C(C(=O)O)N3C(=O)[C@@H](NC(=O)/C(=N\O)c4csc(N)n4)[C@H]3SC2)nn1 [Example 7-17, 7μ-[(Z)-2-(2-aminothiazol-4-yl) -2-hydroxyiminoacetamido]-3-(1-methyl-1,2,3-triazol-4-yl)thiomethylthio-3-cephem-4-carboxylic acid]

MIC (Escherichia coli 7437): 0.02 µg/mL (≈ 0.0378 µM)
SMILES: Cn1ncc(SCSC2=C(C(=O)O)N3C(=O)[C@@H](NC(=O)/C(=N\O)c4csc(N)n4)[C@H]3SC2)n1 [Example 7-18, 7μ-[(Z)-2-(2-aminothiazol-4-yl)-2-hydroxyiminoacetamido]-3-(2-methyl-1,2,3-triazol-4-yl)thiomethylthio-3 cephem-4-carboxylic acid]

MIC [1]: 0.4 µg/mL (≈ 0.757 µM)
MIC (Escherichia coli 7437): 0.02 µg/mL (≈ 0.0378 µM)
SMILES: Cn1nncc1SCSC1=C(C(=O)O)N2C(=O)[C@@H](NC(=O)/C(=N\O)c3csc(N)n3)[C@H]2SC1 [Example 7-19]

MIC [1]: 0.8 µg/mL (≈ 1.55 µM)
MIC (Escherichia coli 7437): 0.02 µg/mL (≈ 0.0389 µM)
MIC [9]: 0.05 µg/mL (≈ 0.0972 µM)
SMILES: Nc1nc(/C(=N/O)C(=O)N[C@@H]2C(=O)N3C(C(=O)O)=C(SCSc4nc[nH]n4)CS[C@H]23)cs1 [Example 7-20, 7μ-[(Z)-2-(2-aminothiazol-4-yl)-2-hydroxyiminoacetamido]-3-(1,2,4-triazol-3-yl)thiomethylthio-3-cephem-4-carboxylic acid]

MIC [1]: 0.4 µg/mL (≈ 0.752 µM)
MIC (Escherichia coli 7437): 0.01 µg/mL (≈ 0.0188 µM)
MIC (Escherichia coli SR377): 0.4 µg/mL (≈ 0.752 µM)
SMILES: Nc1nc(/C(=N/O)C(=O)N[C@@H]2C(=O)N3C(C(=O)O)=C(SCSc4cnns4)CS[C@H]23)cs1 [Example 7-24, 7μ-[(Z)-2-(2-aminothiazol-4-yl)-2-hydroxyiminoacetyl]amino-3-(1,2,3-thiadiazol-5-yl) thiomethylthio-3-cephem-4-carboxylic acid]

MIC [1]: 0.4 µg/mL (≈ 0.752 µM)
MIC (Escherichia coli SR377): 0.4 µg/mL (≈ 0.752 µM)
MIC (Morgania morganii SR9): 0.1 µg/mL (≈ 0.188 µM)
SMILES: Nc1nc(/C(=N/O)C(=O)N[C@@H]2C(=O)N3C(C(=O)O)=C(SCSc4nncs4)CS[C@H]23)cs1 [Example 7-25, 7μ-[(Z)-2-(2-aminothiazol-4-yl)-2-hydroxyiminoacetamido]-3-(1,3,4-thiadiazol-2-ylthiomethylthio)-3-cephem-4-carboxylic acid]

MIC [1]: 0.8 µg/mL (≈ 1.47 µM)
MIC (Escherichia coli 7437): 0.02 µg/mL (≈ 0.0367 µM)
MIC (Escherichia coli SR377): 0.8 µg/mL (≈ 1.47 µM)
MIC (Morgania morganii SR9): 0.05 µg/mL (≈ 0.0916 µM)
SMILES: Cc1nnc(SCSC2=C(C(=O)O)N3C(=O)[C@@H](NC(=O)/C(=N\O)c4csc(N)n4)[C@H]3SC2)s1 [Example 7-26, 7μ-[(Z)-2-(2-aminothiazol-4-yl)-2-hydroxyiminoacetamido]-3-(2-methyl-1,3,4-thiadiazol-5-ylthiomethylthio)-3-cephem-4-carboxylic acid]

MIC (Escherichia coli 7437): 0.01 µg/mL (≈ 0.0194 µM)
SMILES: Nc1nc(/C(=N/O)C(=O)N[C@@H]2C(=O)N3C(C(=O)O)=C(SCSc4nn[nH]n4)CS[C@H]23)cs1 [Example 7-27, 7μ-[(Z) 2-(2-aminothiazol-4-yl)-2-hydroxyiminoacetyl]amino-3-(tetrazol-5-yl)thiomethylthio-3-cephem-4-carboxylic acid]

MIC [1]: 0.8 µg/mL (≈ 1.51 µM)
MIC (Escherichia coli 7437): 0.02 µg/mL (≈ 0.0378 µM)
MIC (Escherichia coli SR377): 0.4 µg/mL (≈ 0.755 µM)
MIC (Morgania morganii SR9): 0.1 µg/mL (≈ 0.189 µM)
SMILES: Cn1nnnc1SCSC1=C(C(=O)O)N2C(=O)[C@@H](NC(=O)/C(=N\O)c3csc(N)n3)[C@H]2SC1 [Example 7-28, 7μ-[(Z)-2-(2-aminothiazol-4-yl)-2-hydroxyiminoacetyl]amino-3-(1-methyl-5-tetrazolyl) thiomethylthio-3-cephem-4-carboxylic acid]

MIC (Escherichia coli 7437): 0.01 µg/mL (≈ 0.0191 µM)
concentration at 0.25 h [2]: 18700 ng/mL
SMILES: Nc1nc(/C(=N/O)C(=O)N[C@@H]2C(=O)N3C(C(=O)O)=C(SCSc4ccccn4)CS[C@H]23)cs1 [Example 7-30]
